Patent publication US20220279787A1, “a-Substituted Phenyl Structure-Containing Compound, Preparation Method Thereof, and Disinfectant” (Henan Ruibo Pharmaceutical Technology Co. Ltd., priority 2019, published 2022)

Assays:
Type in all cases: cell-based
[1] = system: Pseudomonas aeruginosa ATCC 27853; experiment: Suspension quantitative sterilization experiment, Pseudomonas aeruginosa ATCC 27853; conditions: for Activity (killing logarithmic value): suspension method, action time 30 min
Experimental: (§1) (5) Operation Method of Suspension Quantitative Experiment:
(§2) a. The freeze-dried strain tube was provided, opened up under an aseptic condition, and an appropriate amount of nutrient broth was added thereto with a capillary pipette. The strain was melted and dispersed by gently blowing and sucking several times. A test tube containing 5.0 mL-10.0 mL of nutrient broth medium was provided, and a small amount of bacterial suspension was dropped thereto, and incubated at 37° C. for 18 h-24 h. The bacterial suspension of the first generation culture was taken by using an inoculation loop, and streaked and inoculated onto a nutrient agar medium plate, and incubated at 37° C. for 18 h-24 h. The typical colonies from the second generation culture was picked out, inoculated onto a nutrient agar slant, and incubated at 37° C. for 18 h-24 h, obtaining the third generation culture.
(§3) b. The monoclonal strains of the third generation culture of Escherichia coli ATCC 25922, Staphylococcus aureus ATCC 29213, and Pseudomonas aeruginosa ATCC 27853 were picked out respectively and placed in 3 mL of NMB. The strains were shaken in a constant temperature culture shaker for 3 h with a rotation speed of 220 rpm, obtaining a bacterial suspension with a concentration of (1-5)×10^8 CFU/mL.
(§4) c. 0.5 mL of bacterial suspension was added to a sterile test tube, and 0.5 mL of an organic interfering substance (0.03 mol/L PBS buffer) was then added thereto. They were mixed to be uniform, and placed in a water bath at 20° C.±1° C. for 5 min. 4.0 mL of the sample to be tested prepared in step (1) was drawn with a sterile pipette and injected into the mixed solution, mixed quickly, and the time was recorded immediately.
(§5) d. After the experimental bacteria interacted with the sample to be tested for the predetermined time of 1 min, 5 min, 15 min and 30 min. 0.5 mL of the mixture of the experimental bacteria and the sample to be tested was drawn respectively and added to 4.5 mL of a neutralizer, and mixed to be uniform.
(§6) e. After 10 min of neutralization, 1.0 mL of the sample solution was drawn, and the number of viable bacteria was determined by viable count method. After the viable count method, sample solution of each pipette was inoculated onto 2 plates. When the number of colonies growing on the plate was large, 10-fold dilution was performed, and then the viable bacteria was cultured and counted.
(§7) f. At the same time, PBS buffer was used to replace the sample to be tested, and a parallel test was performed as a positive control.
(§8) g. All test samples were placed in a 37° C. incubator overnight, and the results were observed.
(§9) h. The experiment was repeated for 3 times, the concentration of viable bacteria (CFU/mL) of each group was calculated, and converted to logarithmic value (N), and then the killing logarithmic value was calculated according to the following equation:
(§10) Killing logarithmic value (KL)=the logarithmic value of the average viable bacteria concentration of the control group (No)−the logarithmic value of the viable bacteria concentration of the test group (Nx).
(§11) When calculating the killing logarithmic value, two digits after the decimal point was kept, and digital round-off was allowed.

[2] = system: Staphylococcus aureus ATCC 29213; experiment: Suspension quantitative sterilization experiment, Staphylococcus aureus ATCC 29213; conditions: for Activity (killing logarithmic value): suspension method, action time 30 min
Experimental: as §1, §2, §3, §4, §5, §6, §7, §8, §9, §10, §11

[3] = system: Bacillus subtilis var. niger spores ATCC 9372; experiment: Suspension quantitative experiment, Bacillus subtilis var. niger spores; conditions: Bacillus subtilis, ATCC9372, 0.5 h, read-out: Activity (killing logarithmic value)
Experimental: (4) Operation Method of Suspension Quantitative Experiment:
a. The Bacillus subtilis var. niger spores ATCC 9372 freeze-dried strain tube was provided, opened up under an aseptic condition, and an appropriate amount of nutrient broth was added thereto with a capillary pipette. The strain was melted and dispersed by gently blowing and sucking several times. A test tube containing 5.0 mL-10.0 mL of nutrient broth medium was provided, and a small amount of bacterial suspension was dropped thereto, and incubated at 37° C. for 18 h-24 h. The bacterial suspension of the first generation culture was taken by using an inoculation loop.
b. The monoclonal strains of the first generation culture were picked out and placed in 3 mL of NMB. The strains were shaken in a constant temperature culture shaker for 3 h with a rotation speed of 220 rpm, obtaining a bacterial suspension with a concentration of (1-5)×10^8 CFU/mL.
as §4
d. After the experimental bacteria interacted with the sample to be tested for the predetermined time. 0.5 mL of the mixture of the experimental bacteria and a disinfectant was drawn respectively and added to 4.5 mL of a neutralizer, and mixed to be uniform.
as §6
h. At the same time, PBS buffer was used to replace the sample to be tested, and a parallel test was performed as a positive control.
f. All test samples were placed in a 37° C. incubator overnight, and the results were observed.
g. The experiment was repeated for 3 times, the concentration of viable bacteria (CFU/mL) of each group was calculated, and converted to logarithmic value (N), and then the killing logarithmic value was calculated according to the following equation:
as §10, §11

[4] = system: Escherichia coli ATCC 25922; experiment: Suspension quantitative sterilization experiment, Escherichia coli ATCC 25922; conditions: for Activity (killing logarithmic value): suspension method, action time 30 min
Experimental: as §1, §2, §3, §4, §5, §6, §7, §8, §9, §10, §11

Cc1ccc(C(C(=O)O)c2ccc(O)cc2)cc1 (stereo not shown) [Example 4, 2-(4-hydroxyphenyl)-2-p-tolueneacetic acid]
Activity (killing logarithmic value) ([1]; 6.25 g/L): 0.78
Activity (killing logarithmic value) ([2]; 6.25 g/L): 0.75
log reduction at 15000 µg/mL [3]: 1.54
Activity (killing logarithmic value) ([4]; 6.25 g/L): 0.78

CNC(=O)C(c1ccncc1)c1ccc(O)c(O)c1 (stereo not shown) [Example 6, 2-(3,4-dihydroxyphenyl)-N-methyl-2-(4-pyridyl)acetamide]
Activity (killing logarithmic value) ([1]; 6.25 g/L): 0.31
Activity (killing logarithmic value) ([2]; 6.25 g/L): 1.78
log reduction at 15000 µg/mL [3]: 0.76
Activity (killing logarithmic value) ([4]; 6.25 g/L): 1.64

O=C(O)C(c1ccccc1)c1ccccc1 [Example 7, 2,2-diphenylacetic acid]
Activity (killing logarithmic value) ([1]; 6.25 g/L): 1.29
Activity (killing logarithmic value) ([2]; 6.25 g/L): 1.45
log reduction at 15000 µg/mL [3]: 1.97
Activity (killing logarithmic value) ([4]; 6.25 g/L): 1.02

O=C(O)C(c1ccc(O)c(O)c1)c1ccc(O)c(O)c1 [Example 8, 2,2-di-(3,4-dihydroxyphenyl)acetic acid]
Activity (killing logarithmic value) ([1]; 6.25 g/L): 0.88
Activity (killing logarithmic value) ([2]; 6.25 g/L): 0.91
log reduction at 15000 µg/mL [3]: 2.13
Activity (killing logarithmic value) ([4]; 6.25 g/L): 1.73

Oc1ccccc1 [Phenol solution, Phenol]
Killing logarithmic value ([1]; 0.15 g/L, 1 min): 0.46
Killing logarithmic value ([1]; 0.15 g/L, 5 min): 0.51
Killing logarithmic value ([1]; 0.15 g/L, 15 min): 0.57
Killing logarithmic value ([1]; 0.15 g/L, 30 min): 0.67
Killing logarithmic value ([1]; 0.31 g/L, 1 min): 0.76
Killing logarithmic value ([1]; 0.31 g/L, 5 min): 0.79
Killing logarithmic value ([1]; 0.31 g/L, 15 min): 0.84
Killing logarithmic value ([1]; 0.31 g/L, 30 min): 0.93
Killing logarithmic value ([1]; 0.78 g/L, 1 min): 0.99
Killing logarithmic value ([1]; 0.78 g/L, 5 min): 1.08
Killing logarithmic value ([1]; 0.78 g/L, 15 min): 1.12
Killing logarithmic value ([1]; 0.78 g/L, 30 min): 1.16
Killing logarithmic value ([1]; 1.56 g/L, 1 min): 1.21
Killing logarithmic value ([1]; 1.56 g/L, 5 min): 1.25
Killing logarithmic value ([1]; 1.56 g/L, 15 min): 1.34
Killing logarithmic value ([1]; 1.56 g/L, 30 min): 1.65
Killing logarithmic value ([1]; 3.12 g/L, 1 min): 1.56
Killing logarithmic value ([1]; 3.12 g/L, 5 min): 1.86
Killing logarithmic value ([1]; 3.12 g/L, 15 min): 1.92
Killing logarithmic value ([1]; 3.12 g/L, 30 min): 1.98
Killing logarithmic value ([1]; 6.25 g/L, 1 min): 3.07
Killing logarithmic value ([1]; 6.25 g/L, 5 min): 3.65
Killing logarithmic value ([1]; 6.25 g/L, 15 min): 4.55
Killing logarithmic value ([1]; 6.25 g/L, 30 min): 5.25
Killing logarithmic value ([2]; 0.15 g/L, 1 min): 0.45
Killing logarithmic value ([2]; 0.15 g/L, 5 min): 0.48
Killing logarithmic value ([2]; 0.15 g/L, 15 min): 0.55
Killing logarithmic value ([2]; 0.15 g/L, 30 min): 0.73
Killing logarithmic value ([2]; 0.31 g/L, 1 min): 0.67
Killing logarithmic value ([2]; 0.31 g/L, 5 min): 0.69
Killing logarithmic value ([2]; 0.31 g/L, 15 min): 0.73
Killing logarithmic value ([2]; 0.31 g/L, 30 min): 0.86
Killing logarithmic value ([2]; 0.78 g/L, 1 min): 0.79
Killing logarithmic value ([2]; 0.78 g/L, 5 min): 0.82
Killing logarithmic value ([2]; 0.78 g/L, 15 min): 0.89
Killing logarithmic value ([2]; 0.78 g/L, 30 min): 0.95
Killing logarithmic value ([2]; 1.56 g/L, 1 min): 0.86
Killing logarithmic value ([2]; 1.56 g/L, 5 min): 0.91
Killing logarithmic value ([2]; 1.56 g/L, 15 min): 0.99
Killing logarithmic value ([2]; 1.56 g/L, 30 min): 1.02
Killing logarithmic value ([2]; 3.12 g/L, 1 min): 1.13
Killing logarithmic value ([2]; 3.12 g/L, 5 min): 1.21
Killing logarithmic value ([2]; 3.12 g/L, 15 min): 1.23
Killing logarithmic value ([2]; 3.12 g/L, 30 min): 1.26
Killing logarithmic value ([2]; 6.25 g/L, 1 min): 2.52
Killing logarithmic value ([2]; 6.25 g/L, 5 min): 2.62
Killing logarithmic value ([2]; 6.25 g/L, 15 min): 2.74
Killing logarithmic value ([2]; 6.25 g/L, 30 min): 2.99
Killing logarithmic value ([4]; 0.15 g/L, 1 min): 0.21
Killing logarithmic value ([4]; 0.15 g/L, 5 min): 0.29
Killing logarithmic value ([4]; 0.15 g/L, 15 min): 0.43
Killing logarithmic value ([4]; 0.15 g/L, 30 min): 0.47
Killing logarithmic value ([4]; 0.31 g/L, 1 min): 0.29
Killing logarithmic value ([4]; 0.31 g/L, 5 min): 0.31
Killing logarithmic value ([4]; 0.31 g/L, 15 min): 0.46
Killing logarithmic value ([4]; 0.31 g/L, 30 min): 0.58
Killing logarithmic value ([4]; 0.78 g/L, 1 min): 0.32
Killing logarithmic value ([4]; 0.78 g/L, 5 min): 0.46
Killing logarithmic value ([4]; 0.78 g/L, 15 min): 0.63
Killing logarithmic value ([4]; 0.78 g/L, 30 min): 0.79
Killing logarithmic value ([4]; 1.56 g/L, 1 min): 0.47
Killing logarithmic value ([4]; 1.56 g/L, 5 min): 0.65
Killing logarithmic value ([4]; 1.56 g/L, 15 min): 0.78
Killing logarithmic value ([4]; 1.56 g/L, 30 min): 0.99
Killing logarithmic value ([4]; 3.12 g/L, 1 min): 0.69
Killing logarithmic value ([4]; 3.12 g/L, 5 min): 0.76
Killing logarithmic value ([4]; 3.12 g/L, 15 min): 0.81
Killing logarithmic value ([4]; 3.12 g/L, 30 min): 1.02
Killing logarithmic value ([4]; 6.25 g/L, 1 min): 3.57
Killing logarithmic value ([4]; 6.25 g/L, 5 min): 3.69
Killing logarithmic value ([4]; 6.25 g/L, 15 min): 5.86
Killing logarithmic value ([4]; 6.25 g/L, 30 min): 6.17
